A short description of the series: solvent given as SMILES.

Regarding `CN(C)c1cc(C#N)c(N(C)C)c(C#N)c1`, the absorption maximum is on record as 387.45 nm (in C1CCCCC1); 390.47 nm (in C1CCOC1); 391.08 nm (in C1COCCO1); 394.48 nm (in CC1COC(=O)O1); 390.93 nm (in CC#N); 389.86 nm (in CC(C)=O). The absorption maximum is reported as 386.7 nm (in CC(C)OC(C)C); 391.08 nm (in CCC#N); 385.21 nm (in CCC(C)C); 386.7 nm (in CCCCCC); 393.39 nm (in CCCCCCCCO); 388.5 nm (in CCCCCOCCCCC). Further, the absorption maximum runs as follows: (in CCCCOC(C)=O) 389.86 nm; (in CCCCOCCCC) 387.6 nm; (in CCCOCCC) 389.86 nm; (in CCO) 391.7 nm; (in CCOC(C)=O) 389.71 nm; (in CCOCC) 390.62 nm. Also, the absorption maximum is, setting by setting: (in CN(C)C=O) 393.55 nm; (in CO) 392.31 nm; (in CS(C)=O) 396.83 nm; (in Cc1ccccc1) 395.26 nm; (in ClCCCl) 394.48 nm; (in ClCCl) 397.3 nm. Besides, the absorption maximum (in N#Cc1ccccc1) amounted to 399.36 nm, the absorption maximum (in O) worked out at 386.85 nm, the absorption maximum (in OCC(O)CO) was 403.39 nm and the absorption maximum (in c1ccccc1) is 395.73 nm.

For the compound `CN(C)c1ccc(-c2cc(-c3ccc(C#N)cc3)nn2C)cc1`, the absorption maximum runs as follows: (in C1CCCCC1) 288 nm; (in CC#N) 292 nm; (in CCOC(C)=O) 290 nm; (in CCOCC) 289 nm; (in CN(C)C=O) 295 nm; (in Cc1ccccc1) 292 nm. Moreover, the absorption maximum (in ClCCl) is listed as 292 nm.

For the compound `CC[n+]1ccc2ccccc2c1/C=C/c1c([O-])ccc2ccc(=O)oc12`, the absorption maximum is listed as 629.86 nm (in C1CCOC1); 591.03 nm (in CC#N); 603.44 nm (in CC(C)=O); 535.64 nm (in CO); 593.42 nm (in CS(C)=O); 655.01 nm (in Cc1ccccc1). The absorption maximum runs as follows: (in ClC(Cl)Cl) 614.58 nm; (in ClCCl) 614.58 nm; (in O) 491.71 nm.

Consider `Cc1cc(N2c3ccccc3[Si](c3ccccc3)(c3ccccc3)c3ccccc32)c(C)cc1-c1nc(-c2ccccc2)nc(-c2ccccc2)n1`, for which the absorption maximum (in Cc1ccccc1) stood at 365.47 nm.

For the compound `Cc1cc(-c2ccc(N(c3ccccc3)c3ccccc3)cc2)c2nsnc2c1-c1ccc(N(c2ccccc2)c2ccccc2)cc1`, for the setting “in ClCCl”, the absorption maximum amounted to 432 nm.

Under “in ClCCl”, `CC(C)(C)c1ccc(-c2ccc3c(-c4ccc(C(C)(C)C)c5ccccc45)cc4c5cc(-c6ccc(C(C)(C)C)c7ccccc67)ccc5c(-c5ccc(C(C)(C)C)c6ccccc56)cc4c3c2)c2ccccc12` registered an absorption maximum of 300 nm.

Under “in Cc1ccccc1”, `CCC1=[N+]2c3c(c4ccc(Oc5c(C)cc(C)cc5C)c5cc6c(Oc7c(C)cc(C)cc7C)ccc7c8cc(CC)n(c8c3c(c54)c67)[B-]2(F)F)=C1` yielded an absorption maximum of 867 nm.

Compound `Cc1cc(C)c(B(c2ccccc2N2c3ccccc3Oc3ccccc32)c2c(C)cc(C)cc2C)c(C)c1` came in with an absorption maximum (in Cc1ccccc1) of 445 nm.

`CCOC(=O)/N=c1/oc2ccc(OC)cc2cc1C#N`: under “in ClCCl”, the absorption maximum stood at 388 nm.

In the case of `COC(=O)/C(C#N)=c1\s/c(=c2/s/c(=C(/C#N)C(=O)OC)c3cc(-c4ccc5c(c4)C(C)(C)c4ccccc4-5)sc23)c2sc(-c3ccc4c(c3)C(C)(C)c3ccccc3-4)cc12`, the absorption maximum (in Cc1ccccc1) is on record as 630 nm.

Compound `c1ccc(-c2nc3c4ccccc4c4ccccc4c3n2-c2ccccc2)cc1` came in with an absorption maximum (in C1CCOC1) of 362 nm.

`CCCCN1C(=O)C2=C(c3ccc(-c4ccccc4)cc3)[N-]C(=O)C2=C1c1ccc(-c2ccccc2)cc1` gave an absorption maximum (in ClCCl) of 585 nm.

Turning to `CC(=O)N(Cc1ccccn1)c1c2ccccc2c2c3c(cccc13)C(=O)N(Cc1ccccn1)C2=O`, the absorption maximum is reported as 436 nm (in C1CCOC1); 432 nm (in CCCCCC); 437 nm (in CCO); 437 nm (in Cc1ccccc1); 439 nm (in ClCCl).

`CCCCOc1c(C=C2N(C)c3ccccc3C2(C)C)c(=O)c1=O` came in with an absorption maximum (in CCO) of 425 nm.

For the setting “in ClCCl”, `CCCCN(CCCC)c1ccc(C#Cc2cc(C#Cc3c(F)c(F)c(F)c(F)c3F)c(C#Cc3ccc(N(CCCC)CCCC)cc3)cc2C#Cc2c(F)c(F)c(F)c(F)c2F)cc1` registered an absorption maximum of 462 nm.

Regarding `CCCCCCN1C(=O)c2cccc3cc(/N=C\c4cnc5ccccc5c4)cc(c23)C1=O`, the absorption maximum (in ClC(Cl)Cl) amounted to 328 nm.

The compound `CN(C)c1ccc(-c2nc3cnccc3[nH]2)cc1` gave an absorption maximum (in C1CCCCC1) of 327 nm; an absorption maximum (in C1CCOC1) of 332 nm; an absorption maximum (in C1COCCO1) of 331 nm; an absorption maximum (in CC#N) of 335 nm; an absorption maximum (in CCCCO) of 339 nm; an absorption maximum (in CCCO) of 339 nm. The absorption maximum is, setting by setting: (in CCO) 340 nm; (in CCOC(C)=O) 332 nm; (in CCOCC) 328 nm; (in CO) 341 nm; (in O) 335 nm.

On to `[O-]c1c(-c2nc3ccccc3s2)cc2ccc3cccc4ccc1c2c34`, for which the absorption maximum is, setting by setting: (in CC#N) 514 nm; (in CS(C)=O) 524 nm.

Under “in CO”, `CCN(CC)c1ccc(C=Cc2nc3nc4ccccc4nc3s2)cc1` had an absorption maximum of 490 nm.

Consider `CCn1c2ccccc2c2ccc(C#N)cc21`, for which the absorption maximum (in C1CCCCC1) was found to be 366 nm.

Compound `O=c1oc2ccccc2c2c1c(=O)oc1cc(O)c3ccccc3c12` showed an absorption maximum (in CS(C)=O) of 441 nm and an absorption maximum (in ClCCl) of 442 nm.

On to `C[n+]1ccc2c(ccc3c[n+](C)ccc32)c1`, for which, for the setting “in CC#N”, the absorption maximum is listed as 387 nm.

The compound `CCOC(=O)c1cc(C(=O)OCC)c2cc(O)ccc2n1` had an absorption maximum (in CCO) of 364 nm.

Take `COc1ccc(-c2nc(-c3ccccc3)c(N(c3ccccc3)c3ccccc3)s2)cc1`: for the setting “in ClC(Cl)Cl”, the absorption maximum came out at 357 nm.

Consider `CCCCCCOc1ccc(N(c2ccc(OCCCCCC)cc2)c2ccc(-c3sc(-c4ccc(N(c5ccc(OCCCCCC)cc5)c5ccc(OCCCCCC)cc5)cc4)c4nc(-c5ccccc5)c(-c5ccccc5)nc34)cc2)cc1`, for which the absorption maximum (in C1CCOC1) came out at 601 nm; the absorption maximum (in CC(C)=O) was found to be 592 nm; the absorption maximum (in CCOC(C)=O) was 594 nm; the absorption maximum (in CCOCC) was found to be 600 nm; the absorption maximum (in CN(C)C=O) turned out to be 598 nm; the absorption maximum (in Cc1ccccc1) amounted to 600 nm. Further, the absorption maximum reads like this: (in ClC(Cl)Cl) 601 nm; (in ClCCl) 600 nm.

As for `Cc1cc(-c2nc(-c3ccccc3)nc(-c3ccccc3)n2)ccc1-c1ccc2c(c1)C1(c3ccccc3-c3ccccc31)c1ccccc1N2c1ccccc1`, where the note is “in c1cc(-c2cccc(-n3c4ccccc4c4ccccc43)c2)cc(-n2c3ccccc3c3ccccc32)c1”, the absorption maximum is 371.92 nm.

In turn, `Fc1c(F)c(-n2c3ccccc3c3ccccc32)c(F)c(F)c1/C=C/C(=C(c1ccccc1)c1ccccc1)c1ccccc1` showed an absorption maximum (in Cc1ccccc1) of 360 nm.

For `CCOC(=O)C1=CNC=C(C(=O)OCC)C1c1ccccc1`, the absorption maximum is 355 nm (in C1CCOC1) and 355 nm (in CO).

Where the note is “in ClC(Cl)Cl”, `C(#Cc1ccc(C#Cc2ccc(C#Cc3ccccc3)cc2)cc1)c1ccccc1` came in with an absorption maximum of 345 nm.

On to `COc1ccc(-c2cnc(/C=C/c3ccc(OC)c(OC)c3)o2)cc1`, for which, under “in ClCCl”, the absorption maximum came out at 360 nm.

The compound `CC1=C(Cc2ccccc2)C(C)=[N+]2C1=C(C)c1c(C)c(-c3csc(N4CCOCC4)n3)c(C)n1[B-]2(F)F` registered an absorption maximum (in C1CCOC1) of 525 nm; an absorption maximum (in C1COCCO1) of 524 nm; an absorption maximum (in CC#N) of 517 nm; an absorption maximum (in CC(C)O) of 518 nm; an absorption maximum (in CCO) of 516 nm; an absorption maximum (in CCOC(C)=O) of 523 nm. In addition, the absorption maximum runs as follows: (in CN(C)C=O) 526 nm; (in CO) 514 nm; (in CS(C)=O) 522 nm; (in Cc1ccccc1) 527 nm; (in ClC(Cl)Cl) 523 nm; (in ClCCl) 522 nm.

In the case of `CCCCCCCCn1nnc(-c2ccc(C#Cc3ccc(C#Cc4ccc(-c5nnn(CCCCCCCC)n5)cc4)c4nc5c6ccccc6c6ccccc6c5nc34)cc2)n1`, the absorption maximum is given as 428 nm (in C1CCOC1), 428 nm (in Cc1ccccc1) and 428 nm (in ClCCl).

For the compound `COc1cc(OC)cc(C(=O)OCc2c(C)c(=O)n3c(=O)c(C)c(C)n23)c1`, under “in CCO”, the absorption maximum is 378 nm.

For `CC1=C(C#Cc2ccc(N(c3ccccc3)c3ccccc3)cc2)C(C)=[N+]2C1=C(c1ccccc1)c1c(C)c(C#Cc3ccc(N(c4ccccc4)c4ccccc4)cc3)c(C)n1[B-]2(F)F`, the absorption maximum (in C1CCOC1) was determined as 593 nm.

Under “in ClCCl”, `CCCCCCCCCCCCCCCCn1c(-c2cc(-c3nc4ccccc4n3CCCCCCCCCCCCCCCC)cc(-c3nc4ccccc4n3CCCCCCCCCCCCCCCC)c2)nc2ccccc21` returned an absorption maximum of 301 nm.

For the setting “in CO”, `CN1C2=Nc3n(C)c4ccccc4[n+]3CN2c2ccccc21` showed an absorption maximum of 339 nm.

For `O=C1/C(=C2\Sc3ccc(S(=O)(=O)Cl)cc3C2=O)Sc2ccc(S(=O)(=O)Cl)cc21`, the absorption maximum (in C1COCCO1) was found to be 526 nm and the absorption maximum (in CS(C)=O) was 553 nm.

`CCCCCCCCC1(CCCCCCCC)c2ccccc2-c2ccc(-c3nnc(-c4ccc(-n5c6ccc(C(C)(C)C)cc6c6cc(C(C)(C)C)ccc65)cc4)o3)cc21` gave an absorption maximum (in Cc1ccccc1) of 352 nm.

Turning to `C(=C\c1ccc(-c2ccc(/C=C/c3ccc(-n4c5ccccc5c5ccccc54)cc3)s2)s1)/c1ccc(-n2c3ccccc3c3ccccc32)cc1`, the absorption maximum (in Cc1ccccc1) amounted to 440.22 nm.

The values above are taken from the Deep4Chem optical property database.
